Measured values reported in patent US11666657B2, “Protein-drug conjugates and their use in the treatment of cancers” (UNIVERSITE DE STRASBOURG, priority 2017, dated 2023).
Where “and” joins values, the source holds several entries; their conditions need not be identical. Identical values can stand only once.

Columns and labels:
[1] = system: HER2+ SK-BR-3 cells; assay: In vitro efficacy on cell viability (CellTiter 96 AQueous One Solution Cell Proliferation Assay), HER2+ SK-BR-3; assay type: cell-based; conditions: 96 hrs treatment
Procedure: Antiproliferative activity of the ADCs according to this invention was evaluated on two cell lines and compared with that of the commercial ADC Kadcyla® (T-DM1).
HER2^+ SK-BR-3 and HER2^− MDA-MB-231 cell lines were grown in DMEM—high glucose (4,500 mg/L) supplemented with 10% fetal calf serum, Penicillin (200 U/mL)-Streptomycin (200 μg/mL) and L-glutamin (4 mM) (all from Sigma Aldrich, St Louis, Mo., USA). The effects of the payloads and ADCs on these cell lines were assessed using CellTiter 96® AQueous One Solution Cell Proliferation Assay (Promega, Madison, Wis., USA). The cytotoxic agent MMAE was used as a positive control of cell death and every condition was performed as triplicates. SKBR-3 cells were plated in 96-well plates at 3,000 cells/well for ADC tests and at 5,000 cells/well for payload tests, in 100 μL medium. MDA-MB231 cells were plated in 96-well plates at 15,000 cells/well, in 100 μL medium. The cells were allowed to adhere for 24 hrs at 37° C. in a humidified atmosphere of 5% CO2. Medium was then removed and replaced by payloads, ADCs, or MMAE, at different concentrations in fresh medium. […] Absorbance was measured at 515 nm using a 96-well plate reader (Flx-Xenius XM, Safas, Monaco), and to estimate the percentage of viable cells according to each treatment, the negative controls were considered as 100% viability. […]

[2] = system: BT-474 ductal carcinoma tumors; assay: In vivo anti-tumour efficacy in nude mice bearing subcutaneous BT-474 tumors; set-up: species or system Balb/c nude mice; conditions: single i.v. injection 1 mg/kg, BT-474 tumours in nude mice, versus control group
Procedure: In vivo therapeutic efficacy of the ADCs of this invention was evaluated in nude mice bearing subcutaneous BT-474 tumors.
Twenty (20) 6 to 8 week-old Balb/c nude (CByJ.Cg-Foxn1nu/J) females (Charles River Laboratories, L'Arbresles, France) were implanted with BT-474 ductal carcinoma cells (2×10^7) suspended in 200 μL RPMI 1640 medium (Sigma Aldrich) containing matrigel (50:50, v:v, BD Biosciences, France). The injection was performed subcutaneously in the right flank. One day prior implant, the animals were gamma irradiated (2 Gy, ^60Co). The cell transplant was considered as day 0 (D0). Once tumours reached a volume of 200-300 mm^3, mice were randomized according to their individual tumour volume into four distinct groups. The variance of mouse distribution within the groups was analysed to confirm the homogeneity of the groups.
Animal viability, behaviour and well-being were recorded daily; body weight was measured twice a week; and tumour volume was assessed twice a week with a calliper. The volume of the tumour was estimated formula as follow: volume=(width^2×length)/2.
Relative tumour volumes (RTV) were calculated according to the following formula:
Specifically, a principal component analysis (PCA) was carried out using XL Stat software (Addinsoft, Paris, France) in order to compare antitumour activity of T-DM1 and T-APN-Gal-MMAE. […]

Substance: trastuzumab emtansine [T-DM1]
- IC50 [1]: 0.033 nM and 0.0342 nM
- effect on tumour growth [2]: not statistically significant
